Data reported in paper PMC7419507, “In vitro Cas9-assisted editing of modular polyketide synthase genes to produce desired natural product derivatives” (Nature Communications, 2020).

Assay: Stability of the compound during isolation
Format: physicochemical
Details: isolation from culture
From the text: Authors' possible answers (A) to the comments (C) raised by Reviewer #2.
This manuscript by Kudo et al. describes the combined application of in vitro CRIPS-Cas9 and Gibson assembly technology to edit type 1 modular PKSs. Authors […]
module deletion/insertion, reductive domains, stereochemistry of beta-hydroxyl group, and double modification (ER and KR) using rapamycin PKS as a model system. Although in vitro CIRPR/Cas9 system for refactoring of biosynthetic gene clusters in Streptomyces has been reported previously (mBio 6(6):e01714-15), this manuscript may be the first report to use CIRPR/Cas9 technology to edit the large modular PKSs.
We thank Reviewer #2 for the positive evaluation of our technology. Since the engineering […]
(C-1) Although the method used in this study seems promising to edit PKS efficiently, authors should present the complete structural data (e.g. 1D and 2D NMR) of all […]
(A-1) We have added NMR data for compounds 10, 11 , 12, 13, 15 and 16, whose yields were high enough allow their analysis by NMR. In addition, we confirmed the quantitative analysis of all compounds (Supplementary Table 3). […]
smaller m/z than that of 5 (Figs. A(d) and (e)). Multiple degradation products were detected (Fig. B) and those peaks were not detectable from crude extract before isolation.
We measured a NMR spectrum of the collected sample (ca 0.8 mg), however, the sample […]

**Q.** With `CO[C@@H]1C[C@H](C[C@@H](C)[C@@H]2CC(=O)[C@H](C)/C=C(\C)[C@@H](O)CC(=O)[C@H](C)/C=C(C)/C=C/C=C/C=C(\C)[C@H](O)C[C@@H]3CC[C@@H](C)[C@@](O)(O3)C(=O)C(=O)N3CCCC[C@H]3C(=O)O2)CC[C@H]1O` [Compound 19, 27-demethoxy-16-O-demethyl-23,24-didehydro-rapamycin] as the compound, how does the “Stability during isolation, in words” value read?
**A.** so unstable that we could not isolate it

**Q.** Which “Stability during isolation, in words” value does the source give for `CO[C@H]1C[C@@H]2CC[C@@H](C)[C@@](O)(O2)C(=O)C(=O)N2CCCC[C@H]2C(=O)O[C@H]([C@H](C)C[C@@H]2CC[C@@H](O)[C@H](OC)C2)CC(=O)[C@H](C)/C=C(\C)[C@@H](O)[C@@H](OC)C(=O)[C@H](C)CC/C=C/C=C/C=C/1C` [Compound 5, 23-demethyl rapamycin] here?
**A.** instability
